Test results: PubChem BioAssay AID2060895 (Molecular Pharmacology Branch, DTP, NCI, 2025)

System: PDC 899932-113-R3-J6 complex spheroid viability
Experiment: Anticancer human tumor 899932-113-R3-J6-PDC patient-derived melanoma cell line growth inhibition [RAS]
Settings: for IC50: curve of first compound; for viability, T/C: stronger effect = lower value
Summary of the method: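 Multi-cell-type spheroids: tumor cells plus HUVEC endothelial cells and mesenchymal stem cells. RAS-pathway inhibitors were combined with targeted agents, each dosed in half-log steps down from clinical Cmax, or from 10 microM when Cmax was unknown.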
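Throughout, for viability, T/C: spheroids exposed to agents for seven days before readout; 100% = DMSO vehicle control wells.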

C=CC(=O)N1CCN(c2nc(OCC3CCCN3C)nc3c(F)c(-c4nc(N)cc(C)c4C(F)(F)F)c(Cl)cc23)C(C)C1 (configuration not stated) + CCn1c(-c2cc(N3CCN(C)CC3)cnc2C(C)OC)c2c3cc(ccc31)-c1csc(n1)CC(NC(=O)C1CC1C)C(=O)N1CCCC(N1)C(=O)OCC(C)(C)C2
IC50 (second compound 0.000949 µM): > 1000 nM
IC50 (second compound 0.003 µM): < 3.16 nM
IC50 (second compound 0.00949 µM): < 3.16 nM
IC50 (second compound 0.03 µM): < 3.16 nM
IC50 (second compound 0.0949 µM): < 3.16 nM
IC50 (second compound 0.3 µM): < 3.16 nM
viability, T/C (second compound 0.000949 µM, first compound 0.00316 µM): 73.2%
viability, T/C (second compound 0.000949 µM, first compound 0.01 µM): 71.3%
viability, T/C (second compound 0.000949 µM, first compound 0.0316 µM): 75.9%
viability, T/C (second compound 0.000949 µM, first compound 0.1 µM): 76.8%
viability, T/C (second compound 0.000949 µM, first compound 0.316 µM): 74%
viability, T/C (second compound 0.000949 µM, first compound 1 µM): 78.2%
viability, T/C (second compound 0.003 µM, first compound 0.00316 µM): 39.8%
viability, T/C (second compound 0.003 µM, first compound 0.01 µM): 35.6%
viability, T/C (second compound 0.003 µM, first compound 0.0316 µM): 36.5%
viability, T/C (second compound 0.003 µM, first compound 0.1 µM): 37.7%
viability, T/C (second compound 0.003 µM, first compound 0.316 µM): 42.3%
viability, T/C (second compound 0.003 µM, first compound 1 µM): 34.5%
viability, T/C (second compound 0.00949 µM, first compound 0.00316 µM): 3.88%
viability, T/C (second compound 0.00949 µM, first compound 0.01 µM): 4.28%
viability, T/C (second compound 0.00949 µM, first compound 0.0316 µM): 6.59%
viability, T/C (second compound 0.00949 µM, first compound 0.1 µM): 5.83%
viability, T/C (second compound 0.00949 µM, first compound 0.316 µM): 4.76%
viability, T/C (second compound 0.00949 µM, first compound 1 µM): 5.5%
viability, T/C (second compound 0.03 µM, first compound 0.00316 µM): 2.75%
viability, T/C (second compound 0.03 µM, first compound 0.01 µM): 2.91%
viability, T/C (second compound 0.03 µM, first compound 0.0316 µM): 4.47%
viability, T/C (second compound 0.03 µM, first compound 0.1 µM): 2.82%
viability, T/C (second compound 0.03 µM, first compound 0.316 µM): 2.96%
viability, T/C (second compound 0.03 µM, first compound 1 µM): 2.4%
viability, T/C (second compound 0.0949 µM, first compound 0.00316 µM): 2.13%
viability, T/C (second compound 0.0949 µM, first compound 0.01 µM): 2.76%
viability, T/C (second compound 0.0949 µM, first compound 0.0316 µM): 2.86%
viability, T/C (second compound 0.0949 µM, first compound 0.1 µM): 1.94%
viability, T/C (second compound 0.0949 µM, first compound 0.316 µM): 2.58%
viability, T/C (second compound 0.0949 µM, first compound 1 µM): 2.69%
viability, T/C (second compound 0.3 µM, first compound 0.00316 µM): 2.09%
viability, T/C (second compound 0.3 µM, first compound 0.01 µM): 2.1%
viability, T/C (second compound 0.3 µM, first compound 0.0316 µM): 3.32%
viability, T/C (second compound 0.3 µM, first compound 0.1 µM): 3.11%
viability, T/C (second compound 0.3 µM, first compound 0.316 µM): 2.88%
viability, T/C (second compound 0.3 µM, first compound 1 µM): 2.36%
